Patent US20050239723A1, “Compositions and methods useful for treatment of acne” (priority 2004, published 2005)
In brackets after ≈: the same amount, converted by molar mass. Read-outs that look alike come from different tables or passages of the source.

How the values were obtained:
[1] = system: Propionibacterium acnes ATCC #11827; assay: Antimicrobial susceptibility testing (MIC) by the agar dilution method; format: cell-based; conditions: Cutibacterium acnes
skin = assay: Cumulative irritation study (cream vehicle); format: in vivo; conditions: different (cream) vehicle
[2] = system: patients with mild to moderate acne vulgaris; assay: Open label study of NV-02 in the topical treatment of mild to moderate acne vulgaris; format: in vivo, human; conditions: after topical NV-02 twice daily; varied between and within patients
Description: The results were from a study of twenty patients (5 males, 15 females) who were enrolled with varying ethnicity: Caucasian(12), African American (6), Hispanic (1), and Asian (1). The age range was from 20 to 48 years (mean 29.6 years). All subjects received open-label PCL-016 10% gel to be applied twice daily to the face over 12 weeks.
The experiment was performed as indicated for the per protocol analysis described under FIG. 1 above.
22, 2002 • Date of last completed: May 2, 2003 • Methodology: Open label study • Number of patients (planned and analyzed): 15 patients planned, 20 enrolled, 15 completed. • Diagnosis and main criteria for inclusion: mild to moderate acne vulgaris • Test product, dose and mode of administration, batch number: NV-02 applied twice daily to affected areas of the face; Novactyl lot number 155 • Duration of treatment: twice daily for 3 months • Criteria for evaluation: • Efficacy: Total lesion counts, inflammatory lesion count, non-inflammatory lesion count, and Cunliffe's grade, FDA scale • Safety: Adverse events, PCL-0 16 plasma levels, serum chemistry, complete blood count • Statistical Methods: descriptive statistics of patient population, patient demographics, and lesion counts, etc.; changes in lesion counts relative to baseline; percent reduction in lesion counts. […]

acne lesions = conditions: cited from earlier work

O=C(O)c1ccccn1 [Picolinic acid, pyridine-2-carboxylic acid]
MIC ([1]; ATCC11827, P. acnes ATCC #11827, Supplemented Brucella agar with blood, 48-72 hours at 35±2° C., anaerobic, read-out: Minimum Inhibitory Concentration (MIC): lowest concentration that visibly prevented growth): 500 µg/mL (≈ 4060 µM)
risk of topical irritation to the skin (skin): low risk of topical irritation
absorption into the systemic circulation (plasma levels) [2]: Small amounts

CCCCc1ccc(C(=O)O)nc1 [fusaric acid]
MIC ([1]; ATCC11827, read-out: Minimum Inhibitory Concentration (MIC): lowest concentration that visibly prevented growth): 100 µg/mL (≈ 558 µM)

CC1=C(/C=C/C(C)=C/C=C/C(C)=C/C(=O)O)C(C)(C)CCC1 [Tretinoin]
reduction of total lesions counts (acne lesions; topical agent on the market): 32-45%
photosensitization (acne lesions; topical): photosensitizing
